Read-outs that look alike come from different tables or passages of the source.

The experiment concerns the target T1, ACE2 (Homo sapiens, UniProt Q9BYF1).
T1 construct: purchased Abcam/BioVision ab273373
Description: ACE2 inhibition assay (Abcam ACE2 Inhibitor Screening Kit, fluorogenic MCA peptide substrate). The format is biochemical. The following applies: for pIC50 exp-MLN – pIC50 exp: difference between experimental pIC50 of MLN-4760 and of the compound. The protocol: Having validated our radiosynthetic approach to (S,S)-[^18F]1 and with various fluorinated MLN-4760 analogues in hand, we next looked to evaluate the inhibitory activity of the analogues using a commercially available ACE2 inhibition assay kit (Table ) (Figure ). […] Consequently, the pIC50 values of the tested compounds were evaluated relative to our experimentally measured value for MLN-4760 in order to identify lead candidates for radiolabeling. […] The difference between the in vitro pIC^exp 50 for MLN-4760 and the pIC^exp 50 values of (S,S)-1–(S,S)-4 aligned with the difference in the in silico predicted pIC50 (pIC^pr 50) of MLN-4760 and pIC^pr 50 values of (S,S)-1–(S,S)-4. Specifically, these pIC50 differences for all 3,5-disubstituted benzyl analogues (S,S)-2, (S,S)-3, and (S,S)-4 were smaller than for the para-substituted benzyl analogue (S,S)-1, providing support for the pIC^pr 50 values (Table ). Consequently, compounds (S,S)-2, (S,S)-3 and (S,S)-4, with pIC50 values in the same range as MLN-4760, emerge as priority targets for future ACE2 PET radioligand development.
The assay for the inhibition of ACE2 was conducted using a commercially available ACE2 Inhibitor Screening Kit, purchased from Abcam (ACE2 Inhibitor Screening Kit, ab273373; Abcam/BioVision), in 96-well microplates (half area, black, flat bottomed, Greiner Bio-One International) at ambient temperature (set to 23.5 °C), total volume 100 µL. The assay employs a synthetic MCA-based peptide substrate that, upon cleavage by active ACE2, releases a fluorophore measurable by a fluorescence microplate reader (Ex/Em = 320/420 nm). Compounds to be tested were serially diluted with dilution buffer from a stock solution (5 mg/mL) in dimethyl sulfoxide (DMSO) to different concentrations.
Diluted ACE2 enzyme solution was prepared by diluting ACE2 enzyme (20 µL, provided in the kit) with dilution buffer (198 µL, provided in the kit ) and was aliquoted and stored at -20 °C.
Diluted ACE2 enzyme solution (2 µL) was added to assay buffer (48 µL ) to make ACE2 enzyme working solution. Inhibitor solution was prepared by adding the cont rol inhibitors (5 µL, 0.5 mM) to dilution buffer (50 µL) and was aliquoted and stored at -20 °C. The ACE2 substrate was aliquoted and stored at -20 °C. ACE2 substrate solution was prepared by diluting substrate (2 µL) […]
Five controls were prepared: enzyme control (positive control, inhibition free reaction), inhibitor control (negative control to test inhibition), background control (to remove fluorescence from the background), test compound control (to test whether the test compounds react with the substrate) and vehicle control (to test the effect of solvent DMSO on ACE2 enzyme activity).
For enzyme control, inhibitor control and vehicle control, and test compounds, ACE2 enzyme working solution (50 µL) was added. For background control and test compound control, assay buffer (50 µL) was added. Then, assay buffer (10 µL) was added to enzyme control and background control. DMSO solution in assay buffer (10 µL) was added to vehicle control. Inhibitor solution (10 µL) was added to inhibitor control. Test compound solution (10 µL) was added to the test compound control. For the test compound, compound solution (10 µL) with the different concentrations were added. An example of preparation can be found on Table S3.1. The mixture […]
and substrate were incubated separately at room temperature for 15 minutes before substrate (40 µL) was added to each test and mixed evenly to start the reaction. Fluorescence was monitored over 61-minutes (excitation = 320 nm, emission = 420 nm) using a Tecan microplate reader (Infinite® 200 PRO NanoQuant Microplate Reader). Fluorescence spectra were measured using the fluorescence intensity mode (excitation = 320 nm).
Table S4.1. Preparation of control and test compounds
Test Component 1 Component 2 Component 3
Vehicle control 50 µL enzyme1 10 µL DMSO (0.1 mM) 40 µL substrate2
Background control 50 µL assay buffer 10 µL assay buffer 40 µL substrate […]

[1] abbreviates: Abcam ACE2 inhibitor screening kit, read-out: pIC50 exp (experimental pIC50) (converted).

T1 sequence (Q9BYF1 18-805): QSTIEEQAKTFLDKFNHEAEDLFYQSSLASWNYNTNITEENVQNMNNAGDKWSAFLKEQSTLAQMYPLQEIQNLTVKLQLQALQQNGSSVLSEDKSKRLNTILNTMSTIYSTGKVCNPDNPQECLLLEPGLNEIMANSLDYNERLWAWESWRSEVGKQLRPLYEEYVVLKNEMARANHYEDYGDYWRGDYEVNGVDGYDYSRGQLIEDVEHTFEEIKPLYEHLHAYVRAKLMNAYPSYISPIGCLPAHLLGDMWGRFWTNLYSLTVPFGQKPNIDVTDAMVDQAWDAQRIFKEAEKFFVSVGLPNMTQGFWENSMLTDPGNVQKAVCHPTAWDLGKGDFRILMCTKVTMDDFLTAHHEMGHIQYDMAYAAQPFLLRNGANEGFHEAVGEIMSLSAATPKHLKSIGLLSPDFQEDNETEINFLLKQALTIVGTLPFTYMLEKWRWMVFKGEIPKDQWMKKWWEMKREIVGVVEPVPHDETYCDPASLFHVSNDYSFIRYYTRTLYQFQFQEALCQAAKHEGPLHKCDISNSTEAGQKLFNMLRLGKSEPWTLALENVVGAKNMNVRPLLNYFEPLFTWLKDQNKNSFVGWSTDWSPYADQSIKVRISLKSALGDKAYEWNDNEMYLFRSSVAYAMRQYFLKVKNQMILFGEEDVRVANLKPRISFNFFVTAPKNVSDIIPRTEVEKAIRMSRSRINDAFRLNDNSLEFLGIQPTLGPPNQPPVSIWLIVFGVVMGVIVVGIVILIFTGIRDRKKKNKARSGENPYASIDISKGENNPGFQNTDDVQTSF

Consider `CC(C)C[C@@H](N[C@@H](Cc1cncn1Cc1ccc(F)cc1)C(=O)O)C(=O)O` [(S,R)-1], for which the “pIC50 exp-MLN – pIC50 exp” value was determined as 3.15. In addition, the IC50 under setting [1] is 40.7 µM.
In the same order, the values of `CC(C)C[C@H](N[C@@H](Cc1cncn1Cc1ccc(F)cc1)C(=O)O)C(=O)O` [(S,S)-1] are 0.85 and 0.204 µM.
As for `Cc1cc(F)cc(Cn2cncc2C[C@H](N[C@@H](CC(C)C)C(=O)O)C(=O)O)c1` [(S,S)-2], the IC50 is 0.0661 µM and the “pIC50 exp-MLN – pIC50 exp” value amounted to 0.36.
Taken in the same sequence, the figures for `CC(C)C[C@H](N[C@@H](Cc1cncn1Cc1cc(F)cc(Cl)c1)C(=O)O)C(=O)O` [(S,S)-3] were 0.0245 µM and “–0.07”.
On to `COc1cc(Cn2cncc2C[C@H](N[C@@H](CC(C)C)C(=O)O)C(=O)O)cc(OCCF)c1` [(S,S)-4], for which the IC50 is 0.0537 µM and the “pIC50 exp-MLN – pIC50 exp” value is 0.27.
Taken in the same sequence, the figures for `CC(C)C[C@H](N[C@@H](Cc1cncn1Cc1cc(Cl)cc(Cl)c1)C(=O)O)C(=O)O` [MLN-4760, (S,S)-2-(1-carboxy-2-(3-(3,5-dichlorobenzyl)-3H-imidazol-4-yl)-ethylamino)-4-methylpentanoic acid, reference compound] were 0.0288 µM and 0.00.

(Values after publication PMC12322948 (The Journal of Organic Chemistry, 2025).)
